Measured values: ChEMBL document CHEMBL4507289, “Data for DCP probe GSM1” (2021)

How the values were obtained:
[1] = molecular target: Dual specificity mitogen-activated protein kinase kinase 3 (Homo sapiens) (UniProt P46734); settings: Compound concentration 1000.0 nM
[2] = tested on: Tyrosine-protein kinase ABL1 (Homo sapiens), P00519 [Y253F]; settings: Compound concentration 1000.0 nM
[3] = molecular target: Tyrosine-protein kinase Yes (Homo sapiens) (UniProt P07947); settings: Compound concentration 1000.0 nM
[4] = molecular target: 3-phosphoinositide-dependent protein kinase 1 (Homo sapiens) (UniProt O15530); settings: Compound concentration 1000.0 nM
[5] = molecular target: Phosphatidylinositol 4-phosphate 5-kinase type-1 gamma (Homo sapiens) (UniProt O60331); settings: Compound concentration 1000.0 nM
[6] = molecular target: Mitogen-activated protein kinase kinase kinase kinase 4 (Homo sapiens) (UniProt O95819); settings: Compound concentration 1000.0 nM
[7] = molecular target: Serine/threonine-protein kinase D1 (Homo sapiens) (UniProt Q15139); settings: Compound concentration 1000.0 nM
Rattus norvegicus = species: Rattus norvegicus; settings: Compound concentration 10.0 uM
[8] = molecular target: 5-hydroxytryptamine receptor 6 (Homo sapiens) (UniProt P50406); settings: Compound concentration 10.0 uM
Chain of 5-hydroxytryptamine receptor 6 (Homo sapiens) (P50406 whole entry): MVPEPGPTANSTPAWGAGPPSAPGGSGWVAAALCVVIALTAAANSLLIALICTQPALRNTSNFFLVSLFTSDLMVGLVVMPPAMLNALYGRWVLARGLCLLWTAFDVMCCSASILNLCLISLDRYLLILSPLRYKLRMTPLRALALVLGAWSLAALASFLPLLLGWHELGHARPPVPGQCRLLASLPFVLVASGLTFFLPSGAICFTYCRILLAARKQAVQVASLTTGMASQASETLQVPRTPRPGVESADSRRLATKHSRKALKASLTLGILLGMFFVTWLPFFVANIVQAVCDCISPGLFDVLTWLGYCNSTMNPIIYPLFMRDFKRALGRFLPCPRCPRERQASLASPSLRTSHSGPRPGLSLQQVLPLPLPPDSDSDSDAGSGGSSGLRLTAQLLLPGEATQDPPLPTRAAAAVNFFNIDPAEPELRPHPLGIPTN

[9] = molecular target: Tyrosine-protein kinase Lyn (Homo sapiens) (UniProt P07948); settings: Compound concentration 1000.0 nM
[10] = molecular target: Serine/threonine-protein kinase 10 (Homo sapiens) (UniProt O94804); settings: Compound concentration 1000.0 nM
[11] = molecular target: Non-receptor tyrosine-protein kinase TYK2 (Homo sapiens) (UniProt P29597); settings: Compound concentration 1000.0 nM
[12] = molecular target: D(1B) dopamine receptor (Homo sapiens) (UniProt P21918); settings: Compound concentration 10.0 uM
[13] = molecular target: Ribosomal protein S6 kinase alpha-1 (Homo sapiens) (UniProt Q15418); settings: Compound concentration 1000.0 nM
[14] = molecular target: Cyclin-dependent kinase 19 (Homo sapiens) (UniProt Q9BWU1); settings: Compound concentration 1000.0 nM
[15] = molecular target: Calcium-dependent protein kinase 1 (Plasmodium falciparum) (UniProt P62344); settings: Compound concentration 1000.0 nM
[16] = molecular target: Receptor tyrosine-protein kinase erbB-2 (Homo sapiens) (UniProt P04626); settings: Compound concentration 1000.0 nM
[17] = molecular target: Death-associated protein kinase 2 (Homo sapiens) (UniProt Q9UIK4); settings: Compound concentration 1000.0 nM
[18] = molecular target: Calcium/calmodulin-dependent protein kinase type 1D (Homo sapiens) (UniProt Q8IU85); settings: Compound concentration 1000.0 nM
[19] = molecular target: Tyrosine-protein kinase CSK (Homo sapiens) (UniProt P41240); settings: Compound concentration 1000.0 nM
[20] = molecular target: 5-hydroxytryptamine receptor 7 (Homo sapiens) (UniProt P34969); settings: Compound concentration 10.0 uM
[21] = molecular target: Mitogen-activated protein kinase 12 (Homo sapiens) (UniProt P53778); settings: Compound concentration 1000.0 nM
[22] = molecular target: Serine/threonine-protein kinase 38 (Homo sapiens) (UniProt Q15208); settings: Compound concentration 1000.0 nM
[23] = molecular target: Serine/threonine-protein kinase Sgk2 (Homo sapiens) (UniProt Q9HBY8); settings: Compound concentration 1000.0 nM
[24] = molecular target: Serine/threonine-protein kinase PAK 5 (Homo sapiens) (UniProt Q9P286); settings: Compound concentration 1000.0 nM
[25] = molecular target: Serine/threonine-protein kinase Chk2 (Homo sapiens) (UniProt O96017); settings: Compound concentration 1000.0 nM
[26] = molecular target: cAMP-dependent protein kinase catalytic subunit beta (Homo sapiens) (UniProt P22694); settings: Compound concentration 1000.0 nM
[27] = tested on: Mast/stem cell growth factor receptor Kit (Homo sapiens), P10721 [D816H]; settings: Compound concentration 1000.0 nM
Chain of Mast/stem cell growth factor receptor Kit (Homo sapiens), P10721 [D816H] (P10721 whole entry D816H): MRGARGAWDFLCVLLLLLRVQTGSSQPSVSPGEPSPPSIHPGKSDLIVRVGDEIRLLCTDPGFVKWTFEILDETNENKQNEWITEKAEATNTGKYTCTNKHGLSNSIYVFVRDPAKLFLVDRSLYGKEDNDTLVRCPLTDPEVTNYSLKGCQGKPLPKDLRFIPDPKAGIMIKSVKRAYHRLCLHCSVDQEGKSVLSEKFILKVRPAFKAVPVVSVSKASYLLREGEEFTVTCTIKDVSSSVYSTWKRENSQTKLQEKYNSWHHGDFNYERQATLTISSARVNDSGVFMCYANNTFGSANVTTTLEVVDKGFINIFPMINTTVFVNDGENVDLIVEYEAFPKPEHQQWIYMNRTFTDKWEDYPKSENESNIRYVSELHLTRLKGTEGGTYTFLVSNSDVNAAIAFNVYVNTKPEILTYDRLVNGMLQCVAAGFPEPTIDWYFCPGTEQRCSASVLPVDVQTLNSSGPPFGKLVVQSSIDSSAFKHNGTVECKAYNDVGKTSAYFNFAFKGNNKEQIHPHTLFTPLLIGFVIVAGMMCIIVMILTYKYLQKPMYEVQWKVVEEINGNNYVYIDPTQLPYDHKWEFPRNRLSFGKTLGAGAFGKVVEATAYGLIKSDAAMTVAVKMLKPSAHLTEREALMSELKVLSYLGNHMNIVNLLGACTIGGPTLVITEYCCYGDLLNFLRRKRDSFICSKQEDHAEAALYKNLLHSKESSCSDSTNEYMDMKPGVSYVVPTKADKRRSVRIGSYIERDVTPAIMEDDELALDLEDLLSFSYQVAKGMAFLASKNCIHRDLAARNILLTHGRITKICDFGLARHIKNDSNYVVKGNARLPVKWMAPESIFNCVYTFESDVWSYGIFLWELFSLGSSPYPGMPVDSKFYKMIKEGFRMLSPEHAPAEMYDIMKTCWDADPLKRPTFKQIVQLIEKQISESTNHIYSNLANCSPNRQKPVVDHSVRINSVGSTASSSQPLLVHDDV

[28] = tested on: Tyrosine-protein kinase ABL1 (Homo sapiens), P00519 [F317I]; settings: Compound concentration 1000.0 nM
[29] = molecular target: Mitogen-activated protein kinase kinase kinase 6 (Homo sapiens) (UniProt O95382); settings: Compound concentration 1000.0 nM
[30] = molecular target: Casein kinase I isoform gamma-3 (Homo sapiens) (UniProt Q9Y6M4); settings: Compound concentration 1000.0 nM
[31] = molecular target: Phosphorylase b kinase gamma catalytic chain, skeletal muscle/heart isoform (Homo sapiens) (UniProt Q16816); settings: Compound concentration 1000.0 nM
Chain of Phosphorylase b kinase gamma catalytic chain, skeletal muscle/heart isoform (Homo sapiens) (Q16816 whole entry, looked up, canonical isoform): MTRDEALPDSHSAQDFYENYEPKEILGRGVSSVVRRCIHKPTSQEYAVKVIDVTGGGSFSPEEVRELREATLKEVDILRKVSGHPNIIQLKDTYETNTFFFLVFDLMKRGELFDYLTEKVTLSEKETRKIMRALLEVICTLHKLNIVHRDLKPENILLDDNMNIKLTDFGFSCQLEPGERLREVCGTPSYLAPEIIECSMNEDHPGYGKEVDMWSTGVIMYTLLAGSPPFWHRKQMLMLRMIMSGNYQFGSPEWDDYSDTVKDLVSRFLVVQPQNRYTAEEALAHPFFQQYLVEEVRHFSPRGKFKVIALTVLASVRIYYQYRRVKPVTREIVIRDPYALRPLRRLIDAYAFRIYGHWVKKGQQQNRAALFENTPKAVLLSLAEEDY

[32] = tested on: Phosphatidylinositol 4,5-bisphosphate 3-kinase catalytic subunit alpha isoform (Homo sapiens), P42336 [Q546K]; settings: Compound concentration 1000.0 nM
[33] = molecular target: Serine/threonine-protein kinase TNNI3K (Homo sapiens) (UniProt Q59H18); settings: Compound concentration 1000.0 nM
Chain of Serine/threonine-protein kinase TNNI3K (Homo sapiens) (Q59H18 whole entry): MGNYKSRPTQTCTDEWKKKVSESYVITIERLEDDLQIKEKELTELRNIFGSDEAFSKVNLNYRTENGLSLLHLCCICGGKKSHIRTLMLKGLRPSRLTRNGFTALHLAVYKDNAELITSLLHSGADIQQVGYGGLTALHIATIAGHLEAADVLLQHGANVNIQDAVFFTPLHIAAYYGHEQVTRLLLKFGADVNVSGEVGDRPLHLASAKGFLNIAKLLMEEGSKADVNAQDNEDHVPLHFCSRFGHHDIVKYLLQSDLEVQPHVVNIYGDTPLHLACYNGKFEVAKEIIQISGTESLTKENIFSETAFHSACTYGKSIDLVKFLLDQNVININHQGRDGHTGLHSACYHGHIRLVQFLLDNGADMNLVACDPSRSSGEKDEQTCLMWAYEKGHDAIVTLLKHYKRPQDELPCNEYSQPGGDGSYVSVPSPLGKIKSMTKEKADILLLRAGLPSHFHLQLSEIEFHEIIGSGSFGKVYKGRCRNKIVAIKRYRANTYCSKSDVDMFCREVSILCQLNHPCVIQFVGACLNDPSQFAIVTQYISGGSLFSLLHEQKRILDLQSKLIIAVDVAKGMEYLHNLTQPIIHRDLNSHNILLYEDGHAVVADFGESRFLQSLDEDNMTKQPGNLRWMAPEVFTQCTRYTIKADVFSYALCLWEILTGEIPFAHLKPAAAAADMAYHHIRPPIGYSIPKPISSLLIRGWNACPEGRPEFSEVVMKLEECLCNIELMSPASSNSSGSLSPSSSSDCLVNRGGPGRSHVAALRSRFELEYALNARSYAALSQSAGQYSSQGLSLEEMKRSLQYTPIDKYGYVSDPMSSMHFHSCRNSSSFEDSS

[34] = molecular target: Ribosomal protein S6 kinase alpha-5 (Homo sapiens) (UniProt O75582); settings: Compound concentration 1000.0 nM
Chain of Ribosomal protein S6 kinase alpha-5 (Homo sapiens) (O75582 whole entry, looked up): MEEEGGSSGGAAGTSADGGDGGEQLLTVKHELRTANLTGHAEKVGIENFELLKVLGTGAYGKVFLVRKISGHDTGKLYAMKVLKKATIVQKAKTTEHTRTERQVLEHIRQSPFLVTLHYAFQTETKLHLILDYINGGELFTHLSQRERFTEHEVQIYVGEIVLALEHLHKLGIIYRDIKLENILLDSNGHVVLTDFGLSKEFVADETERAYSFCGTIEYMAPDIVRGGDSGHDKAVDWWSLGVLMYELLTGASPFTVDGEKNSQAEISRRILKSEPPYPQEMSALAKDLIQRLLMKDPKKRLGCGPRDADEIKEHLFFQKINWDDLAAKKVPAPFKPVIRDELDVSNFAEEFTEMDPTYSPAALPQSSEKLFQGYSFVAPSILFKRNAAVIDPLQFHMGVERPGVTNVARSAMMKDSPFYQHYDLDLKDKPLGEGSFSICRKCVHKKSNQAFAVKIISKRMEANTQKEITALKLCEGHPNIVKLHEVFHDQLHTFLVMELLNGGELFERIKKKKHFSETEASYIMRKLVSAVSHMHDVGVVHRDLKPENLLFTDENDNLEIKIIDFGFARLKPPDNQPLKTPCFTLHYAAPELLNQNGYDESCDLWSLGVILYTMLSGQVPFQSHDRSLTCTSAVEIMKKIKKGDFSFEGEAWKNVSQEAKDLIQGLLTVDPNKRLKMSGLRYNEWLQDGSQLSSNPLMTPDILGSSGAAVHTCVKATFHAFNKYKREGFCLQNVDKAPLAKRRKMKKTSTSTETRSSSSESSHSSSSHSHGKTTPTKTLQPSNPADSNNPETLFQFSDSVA

[35] = molecular target: Beta-adrenergic receptor kinase 1 (Homo sapiens) (UniProt P25098); settings: Compound concentration 1000.0 nM
[36] = molecular target: Serine/threonine-protein kinase Nek3 (Homo sapiens) (UniProt P51956); settings: Compound concentration 1000.0 nM
[37] = molecular target: Protein-tyrosine kinase 2-beta (Homo sapiens) (UniProt Q14289); settings: Compound concentration 1000.0 nM
Chain of Protein-tyrosine kinase 2-beta (Homo sapiens) (Q14289 whole entry, looked up): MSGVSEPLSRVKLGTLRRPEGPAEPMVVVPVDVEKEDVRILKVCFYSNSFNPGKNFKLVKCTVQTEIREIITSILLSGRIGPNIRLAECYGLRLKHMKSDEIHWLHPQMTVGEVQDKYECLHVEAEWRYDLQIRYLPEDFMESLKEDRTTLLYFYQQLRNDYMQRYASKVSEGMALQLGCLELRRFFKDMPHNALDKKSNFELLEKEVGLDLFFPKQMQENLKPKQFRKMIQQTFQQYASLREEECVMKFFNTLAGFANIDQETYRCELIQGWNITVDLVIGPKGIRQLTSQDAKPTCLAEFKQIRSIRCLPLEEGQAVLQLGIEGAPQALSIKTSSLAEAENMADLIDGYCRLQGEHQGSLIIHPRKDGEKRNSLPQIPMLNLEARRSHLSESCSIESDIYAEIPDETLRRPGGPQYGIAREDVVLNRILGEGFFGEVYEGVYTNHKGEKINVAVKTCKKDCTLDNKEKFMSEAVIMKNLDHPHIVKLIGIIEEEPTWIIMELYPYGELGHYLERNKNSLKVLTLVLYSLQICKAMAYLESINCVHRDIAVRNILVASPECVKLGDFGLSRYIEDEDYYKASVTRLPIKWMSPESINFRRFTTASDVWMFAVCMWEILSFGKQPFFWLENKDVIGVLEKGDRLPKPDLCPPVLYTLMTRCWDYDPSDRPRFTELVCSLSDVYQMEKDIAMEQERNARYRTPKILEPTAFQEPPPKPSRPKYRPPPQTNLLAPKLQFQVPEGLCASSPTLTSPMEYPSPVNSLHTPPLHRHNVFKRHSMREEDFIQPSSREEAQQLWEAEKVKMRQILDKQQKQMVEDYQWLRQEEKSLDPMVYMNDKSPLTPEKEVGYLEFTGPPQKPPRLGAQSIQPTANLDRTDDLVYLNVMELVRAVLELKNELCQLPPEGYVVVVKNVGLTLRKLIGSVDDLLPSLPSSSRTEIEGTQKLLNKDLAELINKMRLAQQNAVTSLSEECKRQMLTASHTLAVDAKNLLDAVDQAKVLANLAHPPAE

[38] = molecular target: Serine/threonine-protein kinase pim-3 (Homo sapiens) (UniProt Q86V86); settings: Compound concentration 1000.0 nM
[39] = molecular target: Mitogen-activated protein kinase 15 (Homo sapiens) (UniProt Q8TD08); settings: Compound concentration 1000.0 nM
[40] = molecular target: Fibroblast growth factor receptor 2 (Homo sapiens) (UniProt P21802); settings: Compound concentration 1000.0 nM
[41] = molecular target: Cyclin-dependent kinase 11A (Homo sapiens) (UniProt Q9UQ88); settings: Compound concentration 1000.0 nM
[42] = molecular target: Platelet-derived growth factor receptor alpha (Homo sapiens) (UniProt P16234); settings: Compound concentration 1000.0 nM
[43] = molecular target: Mitogen-activated protein kinase 9 (Homo sapiens) (UniProt P45984); settings: Compound concentration 1000.0 nM
[44] = molecular target: Mitogen-activated protein kinase kinase kinase kinase 3 (Homo sapiens) (UniProt Q8IVH8); settings: Compound concentration 1000.0 nM
[45] = molecular target: Tyrosine-protein kinase Srms (Homo sapiens) (UniProt Q9H3Y6); settings: Compound concentration 1000.0 nM

Chain of Dual specificity mitogen-activated protein kinase kinase 3 (Homo sapiens) (P46734 whole entry): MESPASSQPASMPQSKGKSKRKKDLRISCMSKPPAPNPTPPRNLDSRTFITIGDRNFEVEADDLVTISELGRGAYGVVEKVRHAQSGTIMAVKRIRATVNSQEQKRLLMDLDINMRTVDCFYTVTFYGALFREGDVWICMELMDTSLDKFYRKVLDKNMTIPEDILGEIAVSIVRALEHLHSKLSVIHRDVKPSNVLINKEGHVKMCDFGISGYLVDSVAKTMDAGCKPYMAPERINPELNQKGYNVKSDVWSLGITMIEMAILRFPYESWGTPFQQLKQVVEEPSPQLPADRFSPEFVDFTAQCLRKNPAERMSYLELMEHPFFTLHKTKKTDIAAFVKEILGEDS

## COc1cc(-c2cn([C@H]3CCc4c(F)cccc4N(CC(F)(F)F)C3=O)nn2)ccc1-n1cnc(C)c1
[1]
  residual activity: 100%
[2]
  residual activity: 100%
[3]
  residual activity: 100%
[4]
  residual activity: 93%
[5]
  residual activity: 90%
[6]
  residual activity: 0%
[7]
  residual activity: 100%
Rattus norvegicus
  inhibition: 8.82%
[8]
  inhibition: -4.64%
[9]
  residual activity: 100%
[10]
  residual activity: 100%
[11]
  residual activity: 100%
[12]
  inhibition: -8.33%
[13]
  residual activity: 81%
[14]
  residual activity: 97%
[15]
  residual activity: 100%
[16]
  residual activity: 100%
[17]
  residual activity: 100%
[18]
  residual activity: 100%
[19]
  residual activity: 100%
[20]
  inhibition: 26.8%
[21]
  residual activity: 79%
[22]
  residual activity: 89%
[23]
  residual activity: 95%
[24]
  residual activity: 93%
[25]
  residual activity: 100%
[26]
  residual activity: 95%
[27]
  residual activity: 67%
[28]
  residual activity: 100%
[29]
  residual activity: 98%
[30]
  residual activity: 86%
[31]
  residual activity: 78%
[32]
  residual activity: 90%
[33]
  residual activity: 100%
[34]
  residual activity: 100%
[35]
  residual activity: 100%
[36]
  residual activity: 86%
[37]
  residual activity: 100%
[38]
  residual activity: 90%
[39]
  residual activity: 78%
[40]
  residual activity: 100%
[41]
  residual activity: 100%
[42]
  residual activity: 100%
[43]
  residual activity: 92%
[44]
  residual activity: 100%
[45]
  residual activity: 100%

## COc1cc(-c2cn([C@H]3CCc4ccccc4N(CC(F)(F)F)C3=O)nn2)ccc1-n1ccc(C)n1
[1]
  residual activity: 89%
[2]
  residual activity: 87%
[3]
  residual activity: 100%
[4]
  residual activity: 100%
[5]
  residual activity: 100%
[6]
  residual activity: 100%
[7]
  residual activity: 100%
Rattus norvegicus
  inhibition: 59.5%
[8]
  inhibition: -1.39%
[9]
  residual activity: 100%
[10]
  residual activity: 100%
[11]
  residual activity: 100%
[12]
  inhibition: 20.1%
[13]
  residual activity: 82%
[14]
  residual activity: 72%
[15]
  residual activity: 99%
[16]
  residual activity: 100%
[17]
  residual activity: 100%
[18]
  residual activity: 100%
[19]
  residual activity: 100%
[20]
  inhibition: 5.84%
[21]
  residual activity: 100%
[22]
  residual activity: 100%
[23]
  residual activity: 100%
[24]
  residual activity: 96%
[25]
  residual activity: 100%
[26]
  residual activity: 81%
[27]
  residual activity: 75%
[28]
  residual activity: 67%
[29]
  residual activity: 53%
[30]
  residual activity: 86%
[31]
  residual activity: 80%
[32]
  residual activity: 97%
[33]
  residual activity: 100%
[34]
  residual activity: 74%
[35]
  residual activity: 87%
[36]
  residual activity: 100%
[37]
  residual activity: 100%
[38]
  residual activity: 100%
[39]
  residual activity: 100%
[40]
  residual activity: 100%
[41]
  residual activity: 97%
[42]
  residual activity: 88%
[43]
  residual activity: 64%
[44]
  residual activity: 100%
[45]
  residual activity: 84%
